Test results reported in US12662475B2, “Difluorocyclohexyl derivatives as IL-17 modulators” (UCB BIOPHARMA SRL, priority 2020, dated 2026).

What follows are compounds tested on IL-17 induced IL-6 release from human dermal fibroblasts (assay: Inhibition of IL-17A induced IL-6 release from dermal fibroblast cell line (HDF cell line assay)). Conditions: Incubation Time 5 h.
Format: cell-based
Procedure: Inhibition of IL-17A Induced IL-6 Release from Dermal Fibroblast Cell Line
The purpose of this assay is to test the neutralising ability to IL-17 proteins, in a human primary cell system.
The resultant IL-6 response was then measured using a homogenous time-resolved FRET kit from Cisbio. The kit utilises two monoclonal antibodies, one labelled with Eu-Cryptate (Donor) and the second with d2 or XL665 (Acceptor).
The ability of a compound to inhibit IL-17 induced IL-6 release from human dermal fibroblasts is measured in this assay.
The TrypLE was neutralised using complete medium (45 mL) and the cells were centrifuged at 300×g for 3 minutes. […] The cells were left for a minimum of three hours, at 37° C./5% CO2, to adhere to the plate.
10 μL from the aqueous dilution plate was transferred to the reagent plate containing 30 μL of the diluted cytokines, to give a 2.5% DMSO solution. The compounds were incubated with the cytokine mixtures for 1 h or 5 h at 37° C. After the incubation, 10 μL was transferred to the assay plate, to give a […] solution, then incubated for 18-20 h at 37° C./5% CO2.

First: CCS(=O)(=O)CCC(C(=O)N1CC(F)(F)C(F)(F)C1)c1ccc2[nH]c([C@@H](NC(=O)c3nonc3C)C3CCC(F)(F)CC3)nc2c1F (mixture of isomers) [Example 27, N—[(S)-(4,4-Difluorocyclohexyl){5-[3-(ethylsulfonyl)-1-(3,3,4,4-tetrafluoropyrrolidine-1-carbonyl)propyl]-4-fluoro-1H-benzimidazol-2-yl}methyl]-4-methyl-1,2,5-oxadiazole-3-carboxamide]
Second: CCS(=O)(=O)CC[C@H](C(=O)N1CC(F)(F)C(F)(F)C1)c1ccc2[nH]c([C@@H](NC(=O)c3nonc3C)C3CCC(F)(F)CC3)nc2c1F (single isomer, unassigned) [Example 28]
The IC50 of the first is 2-fold higher: 6.31 nM for the first, 3.16 nM for the second.

Going from `Cc1nonc1C(=O)N[C@H](c1nc2c(F)c(C(CC(F)F)C(=O)N[C@@H](C)C(F)(F)F)ccc2[nH]1)C1CCC(F)(F)CC1` (mixture of isomers) [Example 43, N—{(S)-(4,4-Difluorocyclohexyl)[5-(3,3-difluoro-1-{[(1S)-2,2,2-trifluoro-1-methylethyl]-carbamoyl}propyl)-4-fluoro-1H-benzimidazol-2-yl]methyl}-4-methyl-1,2,5-oxadiazole-3-carboxamide] to `Cc1nonc1C(=O)N[C@H](c1nc2c(F)c(C(CC(F)F)C(=O)N[C@H](C)C(F)(F)F)ccc2[nH]1)C1CCC(F)(F)CC1` (mixture of isomers) [Example 46, N—{(S)-(4,4-Difluorocyclohexyl)[5-(3,3-difluoro-1-{[(1R)-2,2,2-trifluoro-1-methylethyl]-carbamoyl}propyl)-4-fluoro-1H-benzimidazol-2-yl]methyl}-4-methyl-1,2,5-oxadiazole-3-carboxamide], the IC50 rises from 50.1 nM to 398 nM (7.9-fold). The first is the more potent here.

Compared with `CC(C)n1ncnc1C(=O)N[C@H](c1nc2c(F)c(C(CC(F)F)C(=O)NCC(C)(F)F)ccc2[nH]1)C1CCC(F)(F)CC1` (mixture of isomers) [Example 53, N—[(S)-(4,4-Difluorocyclohexyl){5-[1-(2,2-difluoropropylcarbamoyl)-3,3-difluoropropyl]-4-fluoro-1H-benzimidazol-2-yl}methyl]-2-isopropyl-1,2,4-triazole-3-carboxamide], `CC(C)n1ncnc1C(=O)N[C@H](c1nc2c(F)c(C(CC(F)(F)F)C(=O)NCC(C)(F)F)ccc2[nH]1)C1CCC(F)(F)CC1` (mixture of isomers) [Example 68, N—[(S)-(4,4-Difluorocyclohexyl){5-[1-(2,2-difluoropropylcarbamoyl)-3,3,3-trifluoro-propyl]-4-fluoro-1H-benzimidazol-2-yl}methyl]-2-isopropyl-1,2,4-triazole-3-carboxamide] is 5-fold lower in IC50: 63.1 nM for the first, 12.6 nM for the second.

Going from `CC(C)n1ncnc1C(=O)N[C@H](c1nc2c(F)c(C(CC(F)(F)F)C(=O)NCC(C)(C)F)ccc2[nH]1)C1CCC(F)(F)CC1` (mixture of isomers) [Example 71, N—[(S)-(4,4-Difluorocyclohexyl)(4-fluoro-5-{3,3,3-trifluoro-1-[(2-fluoro-2-methyl-propyl)carbamoyl]propyl}-1H-benzimidazol-2-yl)methyl]-2-isopropyl-1,2,4-triazole-3-carboxamide] to `CC(C)n1ncnc1C(=O)N[C@H](c1nc2c(F)c([C@H](CC(C)(F)F)C(=O)NCC(C)(F)F)ccc2[nH]1)C1CCC(F)(F)CC1` (mixture of isomers) [Example 85, N—[(S)-(4,4-Difluorocyclohexyl){5-[1-(2,2-difluoropropylcarbamoyl)-3,3-difluorobutyl]-4-fluoro-1H-benzimidazol-2-yl}methyl]-2-isopropyl-1,2,4-triazole-3-carboxamide], the IC50 falls from 25.1 nM to 12.6 nM (2-fold). The second is the more potent here.

Going from `CC(F)(F)CNC(=O)C(CC(F)(F)F)c1ccc2[nH]c([C@@H](NC(=O)C3(F)CC3)C3CCC(F)(F)CC3)nc2c1F` (mixture of isomers) [Example 82, N—[(S)-(4,4-Difluorocyclohexyl){5-[1-(2,2-difluoropropylcarbamoyl)-3,3,3-trifluoro-propyl]-4-fluoro-1H-benzimidazol-2-yl}methyl]-1-fluorocyclopropanecarboxamide] to `Cc1nonc1C(=O)N[C@H](c1nc2c(F)c(C(CC(F)(F)F)C(=O)NCC(F)(F)F)ccc2[nH]1)C1CCC(F)(F)CC1` (mixture of isomers) [Example 33, N—[(S)-(4,4-Difluorocyclohexyl){4-fluoro-5-[3,3,3-trifluoro-1-(2,2,2-trifluoroethyl-carbamoyl)propyl]-1H-benzimidazol-2-yl}methyl]-4-methyl-1,2,5-oxadiazole-3-carboxamide], the IC50 falls from 25.1 nM to 3.98 nM (6.3-fold). The second is the more potent here.

First: Cc1nonc1C(=O)N[C@H](c1nc2c(F)c(C(CC(F)(F)F)C(=O)N[C@@H](C)C(F)(F)F)ccc2[nH]1)C1CCC(F)(F)CC1 (mixture of isomers) [Example 15, N—{(S)-(4,4-Difluorocyclohexyl)[4-fluoro-5-(3,3,3-trifluoro-1-{[(1S)-2,2,2-trifluoro-1-methylethyl]carbamoyl}propyl)-1H-benzimidazol-2-yl]methyl}-4-methyl-1,2,5-oxadiazole-3-carboxamide]
Second: Cc1nonc1C(=O)N[C@H](c1nc2c(F)c([C@H](CC(F)(F)F)C(=O)N[C@@H](C)C(F)(F)F)ccc2[nH]1)C1CCC(F)(F)CC1 (single isomer, unassigned) [Example 25]
The IC50 of the first is 2.5-fold higher: 20 nM for the first, 7.94 nM for the second. The second is the more potent here.

First: Cc1nonc1C(=O)N[C@H](c1nc2c(F)c(C(CC(F)(F)F)C(=O)NCC(F)F)ccc2[nH]1)C1CCC(F)(F)CC1 (mixture of isomers) [Example 36, N—[(S)-(4,4-Difluorocyclohexyl){5-[1-(2,2-difluoroethylcarbamoyl)-3,3,3-trifluoro-propyl]-4-fluoro-1H-benzimidazol-2-yl}methyl]-4-methyl-1,2,5-oxadiazole-3-carboxamide]
Second: Cc1nonc1C(=O)N[C@H](c1nc2c(F)c([C@H](CC(F)(F)F)C(=O)NCC(F)F)ccc2[nH]1)C1CCC(F)(F)CC1 (single isomer, unassigned) [Example 37]
The IC50 of the first is 2-fold higher: 31.6 nM for the first, 15.8 nM for the second. The second is the more potent here.

First: Cc1nonc1C(=O)N[C@H](c1nc2c(F)c(C(CC(F)F)C(=O)NCC(F)(F)F)ccc2[nH]1)C1CCC(F)(F)CC1 (mixture of isomers) [Example 40, N—[(S)-(4,4-Difluorocyclohexyl){5-[3,3-difluoro-1-(2,2,2-trifluoroethylcarbamoyl)-propyl]-4-fluoro-1H-benzimidazol-2-yl}methyl]-4-methyl-1,2,5-oxadiazole-3-carboxamide]
Second: Cc1nonc1C(=O)N[C@H](c1nc2c(F)c([C@H](CC(F)F)C(=O)NCC(F)(F)F)ccc2[nH]1)C1CCC(F)(F)CC1 (single isomer, unassigned) [Example 41]
The IC50 of the first is 1.6-fold higher: 7.94 nM for the first, 5.01 nM for the second. The second is the more potent here.

Compared with `O=C(N[C@H](c1nc2c(F)c(C(CC(F)F)C(=O)NCC(F)(F)F)ccc2[nH]1)C1CCC(F)(F)CC1)c1ccccc1F` (mixture of isomers) [Example 49, N—[(S)-(4,4-Difluorocyclohexyl){5-[3,3-difluoro-1-(2,2,2-trifluoroethylcarbamoyl)-propyl]-4-fluoro-1H-benzimidazol-2-yl}methyl]-2-fluorobenzamide], `Cc1nonc1C(=O)N[C@H](c1nc2c(F)c([C@@H](CC(F)F)C(=O)NCC(F)(F)F)ccc2[nH]1)C1CCC(F)(F)CC1` (single isomer, unassigned) [Example 42] is 4-fold higher in IC50: 31.6 nM for the first, 126 nM for the second.

Compared with `CC(C)(F)CNC(=O)C(CC(F)(F)F)c1ccc2[nH]c([C@@H](NC(=O)c3nonc3C3CC3)C3CCC(F)(F)CC3)nc2c1F` (mixture of isomers) [Example 62, 4-Cyclopropyl-N—[(S)-(4,4-difluorocyclohexyl)(4-fluoro-5-{3,3,3-trifluoro-1-[(2-fluoro-2-methylpropyl)carbamoyl]propyl}-1H-benzimidazol-2-yl)methyl]-1,2,5-oxadiazole-3-carboxamide], `Cc1nonc1C(=O)N[C@H](c1nc2c(F)c([C@H](CC(F)(F)F)C(=O)NCC(F)(F)F)ccc2[nH]1)C1CCC(F)(F)CC1` (single isomer, unassigned) [Example 34] is 2-fold lower in IC50: 5.01 nM for the first, 2.51 nM for the second.

Compared with `Cc1nonc1C(=O)N[C@H](c1nc2c(F)c([C@H](CC(F)(F)F)C(=O)N[C@@H](C(=O)N(C)C)C(C)C)ccc2[nH]1)C1CCC(F)(F)CC1` (single isomer, unassigned) [Example 11], `Cc1nonc1C(=O)N[C@H](c1nc2c(F)c([C@@H](CC(F)(F)F)C(=O)N[C@@H](C(=O)N(C)C)C(C)C)ccc2[nH]1)C1CCC(F)(F)CC1` (single isomer, unassigned) [Example 12] is 32-fold higher in IC50: 3.98 nM for the first, 126 nM for the second. The first is the more potent here.

Going from `Cc1nonc1C(=O)N[C@H](c1nc2c(F)c([C@@H](CC(F)(F)F)C(=O)N[C@@H](C)C(F)(F)F)ccc2[nH]1)C1CCC(F)(F)CC1` (single isomer, unassigned) [Example 26] to `Cc1nonc1C(=O)N[C@H](c1nc2c(F)c([C@@H](CC(F)(F)F)C(=O)NCC(F)(F)F)ccc2[nH]1)C1CCC(F)(F)CC1` (single isomer, unassigned) [Example 35], the IC50 rises from 126 nM to 631 nM (5-fold).

`CCS(=O)(=O)CC[C@@H](C(=O)N1CC(F)(F)C(F)(F)C1)c1ccc2[nH]c([C@@H](NC(=O)c3nonc3C)C3CCC(F)(F)CC3)nc2c1F` (single isomer, unassigned) [Example 29] and `Cc1nonc1C(=O)N[C@H](c1nc2c(F)c([C@@H](CC(F)(F)F)C(=O)NCC(F)F)ccc2[nH]1)C1CCC(F)(F)CC1` (single isomer, unassigned) [Example 38] are within 1.5-fold of each other in IC50: 126 nM for the first, 100 nM for the second.

`Cc1nonc1C(=O)N[C@H](c1nc2c(F)c([C@H](CC(F)F)C(=O)N[C@@H](C)C(F)(F)F)ccc2[nH]1)C1CCC(F)(F)CC1` (single isomer, unassigned) [Example 44] was tested, and the IC50 was 10 nM.
